The text below walks through data of US4555504A, “Inclusion complex of β-cyclodextrin and digoxin” (Burroughs Wellcome Co., priority 1981, dated 1985).

Each structure is given as a SMILES string. In brackets after ≈: the same amount, converted by molar mass.

The conditions of data set [1]: background statement; cited from earlier work.
Data set [2] is described as follows: Comparative dissolution of complexed and non-complexed digoxin (B.P. rotating basket). It is filed as physicochemical. Particulars: B.P. 1980 rotating basket, deionised water (1 liter), 37° C., HPLC. The procedure: The dissolution rate of complexed (1:3 complex, Example 1) and non-complexed digoxin was determined in the British Pharmacopoeia rotating basket apparatus (B.P., 1980). The dissolution medium was deionised water (1 liter) at 37° C. A scoop containing sample (about […] of digoxin or about […] of digoxin/B-cyclodextrin complex) was added to the dissolution medium and allowed to settle to the base of the vessel. Samples (2 ml) were taken at intervals up to 60 minutes via a volumetric pippette and assayed by high performance liquid chromatography to determine cumulative percentage release of drug.

A short description of data set [3]: Comparative solubility of complexed and non-complexed cardiac glycosides in deionised water. It counts as physicochemical. The conditions noted are these: shaken about 8 hours, ambient temperature, HPLC.
Excerpt: The resultant mixture was filtered through a filter paper (Whatman No. 2) and then through a membrane filter (0.02 um, Millipore), the filtrate diluted 100 fold with deionised water and the solution thus obtained assayed for cardiac glycoside in a conventional manner using high performance liquid chromatography.

As for `C[C@H]1O[C@@H](O[C@H]2[C@@H](O)C[C@H](O[C@H]3[C@@H](O)C[C@H](O[C@H]4CC[C@@]5(C)[C@H](CC[C@@H]6[C@@H]5C[C@@H](O)[C@]5(C)[C@@H](C7=CC(=O)OC7)CC[C@]65O)C4)O[C@@H]3C)O[C@@H]2C)C[C@H](O)[C@@H]1O` [Digoxin, digoxin], the “solubility of digoxin in water” value in data set [1] is about 0.005%. Further, the “T80 (time for 80% release)” value in data set [2] is over 60 min. Moreover, in data set [3], the concentration in solution (solubility at 8 h) came to 46 µg/mL (≈ 58.9 µM). Moreover, in data set [3] (read-out: Solubility, Non-complexed (percent)), the solubility thermodynamic at 8 h came to 46 µg/mL (≈ 58.9 µM).
